In patent US10597388B2, “Pyridazinone herbicides” (FMC CORPORATION, priority 2014, dated 2020):

Assays:
Assay type in all cases: in vivo
[1] = tested on: johnsongrass (Sorghum halepense); test: Test C greenhouse herbicide test, pre- and postemergence
Method in brief: (§1)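 Percent-control ratings (0 none, 100 complete) came from visual comparison with controls held alongside in the greenhouse for 13–15 d. Treatments covered soil application at sowing and foliar application to young plants 2–18 cm tall.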

[2] = tested on: crabgrass, large (large crabgrass, Digitaria sanguinalis); test: as above
Method in brief: as §1

[3] = tested on: oilseed rape (Brassica napus); test: as above
Method in brief: as §1

[4] = tested on: foxtail, giant (giant foxtail, Setaria faberii); test: as above
Method in brief: as §1

[5] = tested on: wheat (winter wheat, Triticum aestivum); test: as above
Method in brief: as §1

[6] = tested on: barnyardgrass (Echinochloa crus-galli); test: as above
Method in brief: as §1

[7] = tested on: ragweed (common ragweed, Ambrosia elatior); test: as above
Method in brief: as §1

[8] = tested on: lambsquarters (Chenopodium album); test: as above
Method in brief: as §1

[9] = tested on: ryegrass, Italian (Italian ryegrass, Lolium multiflorum); test: as above
Method in brief: as §1

[10] = tested on: galium (catchweed bedstraw, Galium aparine); test: as above
Method in brief: as §1

[11] = tested on: morningglory (Ipomoea coccinea); test: as above
Method in brief: as §1

[12] = tested on: blackgrass (Alopecurus myosuroides); test: Test A greenhouse herbicide test, postemergence; conditions: 1000 g ai/ha, 0 to 100 scale, 0 is no effect, 100 is complete control
Method in brief: (§2)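 Scores are visual injury ratings from 0 (no effect) to 100 (complete control) versus untreated plants, taken roughly 10 d after treatment in the greenhouse. Treatment was postemergence, on one- to two-leaf plants 2–10 cm high growing in a loam soil/sand mix.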

[13] = tested on: galium (catchweed bedstraw, Galium aparine); test: Test A greenhouse herbicide test, postemergence; conditions: 1000 g ai/ha, 0 to 100 scale, 0 is no effect, 100 is complete control
Method in brief: as §2

[14] = Postemergence, 31 g ai/ha, 0 to 100 scale (0 no effect, 100 complete control)
[15] = Postemergence, 125 g ai/ha, scale 0 to 100, 0 is no effect, 100 is complete control
[16] = Postemergence, 250 g ai/ha, scale 0 to 100, 0 no effect, 100 complete control, 13 to 15 d
[17] = Preemergence, 31 g ai/ha, scale 0 to 100, 0 is no effect, 100 is complete control
[18] = Preemergence, 62 g ai/ha, scale 0 to 100, 0 is no effect, 100 is complete control
[19] = Preemergence, 125 g ai/ha, scale 0 to 100, 0 is no effect, 100 is complete control
[20] = Preemergence, 250 g ai/ha, scale 0 to 100, 0 no effect, 100 complete control
[21] = postemergence, 62 g ai/ha, scale 0 to 100, 0 no effect, 100 complete control

CCc1ccc2ccccc2c1-c1c(O)c(C)nn(C)c1=O [Compound 32]
50: Foxtail, Giant plant response rating [4, 21] | Plant response rating, Wheat [5, 19]
100: Crabgrass, Large plant response rating [2, 20] | Oilseed Rape plant response rating [3, 20] | Barnyardgrass plant response rating [6, 20] | Plant response rating, Lambsquarters [8, 16] | Plant response rating, Galium [10, 15] | Plant response rating, Galium [10, 16] | Plant response rating, Galium [10, 19] | Galium plant response rating [10, 21] | Plant response rating, Morningglory [11, 15] | Plant response rating, Morningglory [11, 16] | Morningglory plant response rating [11, 21] | Galium plant response rating [13]
25: Johnsongrass plant response rating [1, 21] | Plant response rating, Oilseed Rape [3, 17] | Plant response rating, Wheat [5, 15]
30: Crabgrass, Large plant response rating [2, 21] | Barnyardgrass plant response rating [6, 21]
55: Plant response rating, Foxtail, Giant [4, 17]
98: Plant response rating, Ragweed [7, 15] | Plant response rating, Ragweed [7, 16] | Ragweed plant response rating [7, 20] | Plant response rating, Lambsquarters [8, 15] | Galium plant response rating [10, 20] | Plant response rating, Morningglory [11, 19] | Morningglory plant response rating [11, 20]
70: Plant response rating, Crabgrass, Large [2, 16] | Plant response rating, Crabgrass, Large [2, 19] | Wheat plant response rating [5, 20] | Plant response rating, Lambsquarters [8, 18]
65: Plant response rating, Barnyardgrass [6, 15] | Plant response rating, Barnyardgrass [6, 18]
60: Plant response rating, Oilseed Rape [3, 15] | Oilseed Rape plant response rating [3, 21]
40: Plant response rating, Wheat [5, 16]
45: Johnsongrass plant response rating [1, 20] | Plant response rating, Wheat [5, 18]
0: Plant response rating, Johnsongrass [1, 17] | Plant response rating, Johnsongrass [1, 18] | Plant response rating, Crabgrass, Large [2, 17]
5: Johnsongrass plant response rating [1, 14] | Wheat plant response rating [5, 14]
15: Plant response rating, Johnsongrass [1, 15] | Foxtail, Giant plant response rating [4, 14] | Wheat plant response rating [5, 21]
10: Plant response rating, Johnsongrass [1, 19] | Crabgrass, Large plant response rating [2, 14] | Oilseed Rape plant response rating [3, 14] | Barnyardgrass plant response rating [6, 14]
20: Plant response rating, Barnyardgrass [6, 17]
35: Plant response rating, Johnsongrass [1, 16] | Plant response rating, Crabgrass, Large [2, 18]
85: Plant response rating, Foxtail, Giant [4, 19] | Foxtail, Giant plant response rating [4, 20] | Plant response rating, Barnyardgrass [6, 19] | Ragweed plant response rating [7, 14] | Plant response rating, Ragweed [7, 17] | Lambsquarters plant response rating [8, 14] | Plant response rating, Lambsquarters [8, 19] | Ryegrass, Italian plant response rating [9, 14] | Plant response rating, Ryegrass, Italian [9, 17]
90: Plant response rating, Oilseed Rape [3, 16] | Plant response rating, Oilseed Rape [3, 18] | Plant response rating, Oilseed Rape [3, 19] | Plant response rating, Foxtail, Giant [4, 16] | Plant response rating, Barnyardgrass [6, 16] | Plant response rating, Ragweed [7, 18] | Ragweed plant response rating [7, 21] | Lambsquarters plant response rating [8, 20] | Lambsquarters plant response rating [8, 21] | Plant response rating, Ryegrass, Italian [9, 15] | Plant response rating, Ryegrass, Italian [9, 18] | Ryegrass, Italian plant response rating [9, 21] | Galium plant response rating [10, 14] | Plant response rating, Galium [10, 17] | Morningglory plant response rating [11, 14] | Plant response rating, Morningglory [11, 18] | Blackgrass plant response rating [12]
95: Plant response rating, Ragweed [7, 19] | Plant response rating, Ryegrass, Italian [9, 16] | Plant response rating, Ryegrass, Italian [9, 19] | Ryegrass, Italian plant response rating [9, 20] | Plant response rating, Galium [10, 18]
75: Plant response rating, Crabgrass, Large [2, 15]
80: Plant response rating, Foxtail, Giant [4, 15] | Plant response rating, Foxtail, Giant [4, 18] | Plant response rating, Lambsquarters [8, 17] | Plant response rating, Morningglory [11, 17]
